Reference: US20220046923A1, “HERBICIDAL CINNOLINIUM COMPOUNDS” (SYNGENTA CROP PROTECTION AG, priority 2018, published 2022)

Assays:
Assay in all cases: Post-emergence efficacy, glasshouse spray test
Type in all cases: in vivo
Settings in all cases: evaluated after 13 days; for pest or weed control at 1000 g/ha: application rate 1000 g/Ha
[1] = test system: Digitaria sanguinalis (DIGSA)
Procedure, shortened: (§1)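 Compound formulated in acetone/IF50 and diluted into 0.25% or 1% Empicol ESC70 with 1% ammonium sulphate was sprayed on glasshouse seedlings 14 days after sowing. Growth continued at 24/16 °C, 14 h light, 65% humidity with twice-daily watering; damage (0–100) scored on day 13.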

Lolium perenne (LOLPE) = test system: Lolium perenne (LOLPE)
Procedure, shortened: as §1

[2] = test system: Chenopodium album (CHEAL)
Procedure, shortened: as §1

Eleusine indica (ELEIN) = test system: Eleusine indica (ELEIN)
Procedure, shortened: as §1

[3] = test system: Amaranthus palmeri (AMAPA)
Procedure, shortened: as §1

[4] = test system: Echinochloa crus-galli (ECHCG)
Procedure, shortened: as §1

Setaria faberi (SETFA) = test system: Setaria faberi (SETFA)
Procedure, shortened: as §1

[5] = test system: Ipomoea hederacea (IPOHE)
Procedure, shortened: as §1

[6] = test system: Euphorbia heterophylla (EPHHL)
Procedure, shortened: as §1

[7] = Digitaria sanguinalis, post-emergence, 312 h, application rate 500 g/Ha, read-out: Control of weed species DIGSA after post-emergence application (100=total damage to plant; 0=no damage to plant)
[8] = Lolium perenne, post-emergence, 312 h, application rate 500 g/Ha, read-out: Control of weed species LOLPE after post-emergence application (100=total damage to plant; 0=no damage to plant)
[9] = Chenopodium album, post-emergence, 312 h, application rate 500 g/Ha, read-out: Control of weed species CHEAL after post-emergence application (100=total damage to plant; 0=no damage to plant)
[10] = Eleusine indica, post-emergence, 312 h, application rate 500 g/Ha, read-out: Control of weed species ELEIN after post-emergence application (100=total damage to plant; 0=no damage to plant)
[11] = Amaranthus palmeri, post-emergence, 312 h, application rate 500 g/Ha, read-out: Control of weed species AMAPA after post-emergence application (100=total damage to plant; 0=no damage to plant)
[12] = Echinochloa crus-galli, post-emergence, 312 h, application rate 500 g/Ha, read-out: Control of weed species ECHCG after post-emergence application (100=total damage to plant; 0=no damage to plant)
[13] = Setaria faberi, post-emergence, 312 h, application rate 500 g/Ha, read-out: Control of weed species SETFA after post-emergence application (100=total damage to plant; 0=no damage to plant)
[14] = Ipomoea hederacea, post-emergence, 312 h, application rate 500 g/Ha, read-out: Control of weed species IPOHE after post-emergence application (100=total damage to plant; 0=no damage to plant)
[15] = Euphorbia heterophylla, post-emergence, 312 h, application rate 500 g/Ha, read-out: Control of weed species EPHHL after post-emergence application (100=total damage to plant; 0=no damage to plant)
[16] = Digitaria sanguinalis, post-emergence, 312 h, read-out: Control of weed species DIGSA after post-emergence application (100=total damage to plant; 0=no damage to plant)
[17] = Lolium perenne, post-emergence, 312 h, read-out: Control of weed species LOLPE after post-emergence application (100=total damage to plant; 0=no damage to plant)
[18] = Chenopodium album, post-emergence, 312 h, read-out: Control of weed species CHEAL after post-emergence application (100=total damage to plant; 0=no damage to plant)
[19] = Eleusine indica, post-emergence, 312 h, read-out: Control of weed species ELEIN after post-emergence application (100=total damage to plant; 0=no damage to plant)
[20] = Amaranthus palmeri, post-emergence, 312 h, read-out: Control of weed species AMAPA after post-emergence application (100=total damage to plant; 0=no damage to plant)
[21] = Echinochloa crus-galli, post-emergence, 312 h, read-out: Control of weed species ECHCG after post-emergence application (100=total damage to plant; 0=no damage to plant)
[22] = Setaria faberi, post-emergence, 312 h, read-out: Control of weed species SETFA after post-emergence application (100=total damage to plant; 0=no damage to plant)
[23] = Ipomoea hederacea, post-emergence, 312 h, read-out: Control of weed species IPOHE after post-emergence application (100=total damage to plant; 0=no damage to plant)
[24] = Euphorbia heterophylla, post-emergence, 312 h, read-out: Control of weed species EPHHL after post-emergence application (100=total damage to plant; 0=no damage to plant)

SMILES	pest or weed control at 500 g/ha [1, 7]	pest or weed control at 500 g/ha (Lolium perenne (LOLPE); [8])	pest or weed control at 500 g/ha [2, 9]	pest or weed control at 500 g/ha (Eleusine indica (ELEIN); [10])	pest or weed control at 500 g/ha [3, 11]	pest or weed control at 500 g/ha [4, 12]	pest or weed control at 500 g/ha (Setaria faberi (SETFA); [13])	pest or weed control at 500 g/ha [5, 14]	pest or weed control at 500 g/ha [6, 15]	also measured
Cc1cccc2n[n+](CCS(=O)(=O)[O-])ccc12 [Compound A97]	50%	10%	90%	70%	100%	30%	60%	10%	80%	–
O=S(=O)([O-])CC[n+]1ccc2cc(C(F)(F)F)ccc2n1 [Compound A98]	10%	10%	30%	20%	0%	10%	0%	0%	40%	–
CCOP(=O)(CC[n+]1ccc2ccccc2n1)OCC.[Br-] [Compound A99]	–	–	–	–	–	–	–	–	–	Control of weed species DIGSA after post-emergence application (100=total damage to plant; 0=no damage to plant) ([1]; application rate 500 g/Ha): 50; Control of weed species LOLPE after post-emergence application (100=total damage to plant; 0=no damage to plant) (Lolium perenne (LOLPE); application rate 500 g/Ha): 20; Control of weed species CHEAL after post-emergence application (100=total damage to plant; 0=no damage to plant) ([2]; application rate 500 g/Ha): 20; Control of weed species ELEIN after post-emergence application (100=total damage to plant; 0=no damage to plant) (Eleusine indica (ELEIN); application rate 500 g/Ha): 30; Control of weed species AMAPA after post-emergence application (100=total damage to plant; 0=no damage to plant) ([3]; application rate 500 g/Ha): 10; Control of weed species ECHCG after post-emergence application (100=total damage to plant; 0=no damage to plant) ([4]; application rate 500 g/Ha): 40; Control of weed species SETFA after post-emergence application (100=total damage to plant; 0=no damage to plant) (Setaria faberi (SETFA); application rate 500 g/Ha): 50; Control of weed species IPOHE after post-emergence application (100=total damage to plant; 0=no damage to plant) ([5]; application rate 500 g/Ha): 10; Control of weed species EPHHL after post-emergence application (100=total damage to plant; 0=no damage to plant) ([6]; application rate 500 g/Ha): 40
COC(=O)c1ccc2n[n+](CCS(=O)(=O)[O-])ccc2c1 [Compound A100]	10%	0%	30%	10%	30%	10%	20%	30%	40%	–
CCOP(=O)(O)CC[n+]1ccc2ccccc2n1 [Compound A103]	60%	20%	0%	30%	20%	30%	60%	20%	40%	–
CC(=O)Nc1cccc2cc[n+](CCS(=O)(=O)[O-])nc12 [Compound A107, 2-(8-acetamidocinnolin-2-ium-2-yl)ethanesulfonate]	–	–	–	–	–	–	–	–	–	pest or weed control at 130 g/ha ([1]; Digitaria sanguinalis, post-emergence, 312 h, application rate 130 g/Ha, read-out: Control of weed species DIGSA after post-emergence application (100=total damage to plant; 0=no damage to plant)): 70%; pest or weed control at 130 g/ha (Lolium perenne (LOLPE); Lolium perenne, post-emergence, 312 h, application rate 130 g/Ha, read-out: Control of weed species LOLPE after post-emergence application (100=total damage to plant; 0=no damage to plant)): 40%; pest or weed control at 130 g/ha ([2]; Chenopodium album, post-emergence, 312 h, application rate 130 g/Ha, read-out: Control of weed species CHEAL after post-emergence application (100=total damage to plant; 0=no damage to plant)): 40%; pest or weed control at 130 g/ha (Eleusine indica (ELEIN); Eleusine indica, post-emergence, 312 h, application rate 130 g/Ha, read-out: Control of weed species ELEIN after post-emergence application (100=total damage to plant; 0=no damage to plant)): 40%; pest or weed control at 130 g/ha ([3]; Amaranthus palmeri, post-emergence, 312 h, application rate 130 g/Ha, read-out: Control of weed species AMAPA after post-emergence application (100=total damage to plant; 0=no damage to plant)): 60%; pest or weed control at 130 g/ha ([4]; Echinochloa crus-galli, post-emergence, 312 h, application rate 130 g/Ha, read-out: Control of weed species ECHCG after post-emergence application (100=total damage to plant; 0=no damage to plant)): 80%; pest or weed control at 130 g/ha (Setaria faberi (SETFA); Setaria faberi, post-emergence, 312 h, application rate 130 g/Ha, read-out: Control of weed species SETFA after post-emergence application (100=total damage to plant; 0=no damage to plant)): 70%; pest or weed control at 130 g/ha ([5]; Ipomoea hederacea, post-emergence, 312 h, application rate 130 g/Ha, read-out: Control of weed species IPOHE after post-emergence application (100=total damage to plant; 0=no damage to plant)): 40%; pest or weed control at 130 g/ha ([6]; Euphorbia heterophylla, post-emergence, 312 h, application rate 130 g/Ha, read-out: Control of weed species EPHHL after post-emergence application (100=total damage to plant; 0=no damage to plant)): 50%
COC(=O)c1ccc2cc[n+](CCS(=O)(=O)[O-])nc2c1 [Compound A108]	70%	10%	40%	30%	20%	20%	10%	10%	50%	–
COC(=O)c1cccc2cc[n+](CCS(=O)(=O)[O-])nc12 [Compound A109, 2-(8-methoxycarbonylcinnolin-2-ium-2-yl)ethanesulfonate]	10%	10%	20%	10%	40%	30%	10%	10%	30%	–
N#Cc1cccc2cc[n+](CCS(=O)(=O)[O-])nc12 [Compound A110, 2-(8-cyanocinnolin-2-ium-2-yl)ethanesulfonate]	20%	0%	30%	20%	70%	20%	20%	40%	60%	–
O=S(=O)([O-])OCC[n+]1nc2ccccc2cc1Cl [Compound A111]	–	–	–	–	–	–	–	–	–	pest or weed control at 1000 g/ha [1, 16]: 10%; pest or weed control at 1000 g/ha (Lolium perenne (LOLPE); [17]): 0%; pest or weed control at 1000 g/ha [2, 18]: 0%; pest or weed control at 1000 g/ha (Eleusine indica (ELEIN); [19]): 20%; pest or weed control at 1000 g/ha [3, 20]: 0%; pest or weed control at 1000 g/ha [4, 21]: 0%; pest or weed control at 1000 g/ha (Setaria faberi (SETFA); [22]): 0%; pest or weed control at 1000 g/ha [5, 23]: 0%; pest or weed control at 1000 g/ha [6, 24]: 30%
O=S(=O)(O)CC[n+]1ccc2cc(-c3ccccc3)ccc2n1 [Compound A112]	–	–	–	–	–	–	–	–	–	pest or weed control at 1000 g/ha [1, 16]: 30%; pest or weed control at 1000 g/ha (Lolium perenne (LOLPE); [17]): 10%; pest or weed control at 1000 g/ha [2, 18]: 30%; pest or weed control at 1000 g/ha (Eleusine indica (ELEIN); [19]): 30%; pest or weed control at 1000 g/ha [3, 20]: 10%; pest or weed control at 1000 g/ha [4, 21]: 10%; pest or weed control at 1000 g/ha (Setaria faberi (SETFA); [22]): 20%; pest or weed control at 1000 g/ha [5, 23]: 10%; pest or weed control at 1000 g/ha [6, 24]: 20%
